Literature values in patent US4256727A, “Synthesis and use of diagnostic radio-pharmaceuticals comprising radioactive isotopes of bromine with dyes” (The University of Kentucky Research Foundation, priority 1978, dated 1981).

How the values were obtained:
[1] = rate at which the drug is cleared from the blood after injection
[2] = formulated with propylene glycol and stored at refrigerated temperatures

Row | SMILES | half life of clearance from the blood [1] [min] | stability of the product [2]
1 | O=C1OC2(c3cc(I)c(O)c(I)c3Oc3c2cc(I)c(O)c3I)c2c(Cl)c(Cl)c(Cl)c(Cl)c21 [Rose Bengal] | 8 to 10 | stable
2 | O=S1(=O)OC(c2cc(Br)c(O)c(Br)c2)(c2cc(Br)c(O)c(Br)c2)c2ccccc21 [bromphenol blue, 4,4'-(3H-2,1,-benzoxathiol-3-ylidene)bis[2,6-dibromophenol]S,S,-dioxide] | 1.5 | –
